For series [1], the system named is RT97 + RGC axons. Kind of series: Protection of retinal ganglion cell axons from degeneration following optic nerve transection (Table VIII). It is filed as in vivo. The following applies: ± SEM. An excerpt:
Efficacy of representative compounds from different immunophilin ligand series in protecting retinal ganglion cell axons from degeneration following optic nerve transection is set forth in Table VIII

In series [2] the test system is retinal ganglion cells and optic nerve axons. Kind of series: Optic nerve transection vision loss model, 14 or 28 day treatment, sacrifice 90 days after transection. Format: in vivo, Sprague Dawley rats. The following applies: 28 days treatment; 90 days after ONT; cross sectional area × myelin density. From the text: All eyes and optic nerves stumps were removed.

The subject of series [3] is retinal ganglion cells, optic nerve axons and myelin. Kind of series: Retinal ischemia (intraocular pressure raised above arterial pressure), examined 28 days later. It is filed as in vivo, adult rats. From the text:
Retinal ganglion cells were retrogradely labeled in adult rats by bilateral injection of fluorogold in their lateral geniculate nuclei. Labeled ganglion cells in the normal rat retina appear as white profiles against the dark background (FIG. 1A). Complete retinal ischemia was produced by infusing normal saline solution into the retinal vitreous cavity of each eye until the intraocular pressure exceeded arterial blood pressure. 28 days after the ischemic episode extensive degeneration of retinal ganglion cell was evidenced by massive reduction in the density of fluorogold labeled cells (FIG. 1B).
Optic nerves from vehicle treated cases examined 28 days after a 1 hour retinal ischemic episode are characterized by a decreased density of optic nerve axons and the appearance of numerous degenerating myelin figures (bright white filled circles).

The test system of series [4] is retinal ganglion cells and their axons. Kind of series: Example 15: optic nerve transection, 28 days GPI-1046, sacrifice at 90 days. To be noted: 10 mg/kg/day s.c. for 28 days; 90 days after transection; RT97. Format: in vivo, Sprague Dawley rats. From the text: Transection of the mammalian optic nerve results in a brief period of abortive regeneration, but the majority of axotomized neurons die and the axons from many persisting ganglion cells die back beyond the optic nerve head.

Series [5] deals with retina (INL, GCL, ONL, OPL, PR). Kind of series: Streptozotocin induced diabetes: retinal neovascularization and neuron loss. It is filed as in vivo. To be noted: 28 day treatment beginning 8 weeks after onset of streptozotocin diabetes.
Series [6] can be described thus: Clearance (Table VIII comments). Format: in vitro ADME.

Molecules are shown by their SMILES.

Take `O=C(SCCCc1ccccc1)[C@@H]1CCCN1C(=O)NC12CC3CC(CC(C3)C1)C2` [B]: the “RT97 +RGC axon density 14 days after ON transection (% ON axons rescued)” value in series [1] is reported as 100.0%±5.2% SEM.
For `O=C(SCCCc1ccccc1)[C@@H]1CCCN1S(=O)(=O)Cc1ccccc1` [C], the “RT97 +RGC axon density 14 days after ON transection (% ON axons rescued)” value in series [1] is on record as 60.4%±3.1% SEM.
For `CCC(C)(C)C(=O)C(=O)N1CCC[C@H]1C(=O)OCCCc1cccnc1` [GPI 1046, 3-(3-pyridyl)-1-propyl (2s)-1-(3,3-dimethyl-1,2-dioxopentyl)-2-pyrrolidinecarboxylate], the “Distal optic nerve myelin basic protein Density: myelin preservation” value in series [2] is around 99 % myelin preservation. In addition, the “protection of retinal ganglion cells after retinal ischemia” value in series [3] (10 mg/kg s.c. 1 hour prior and 10 mg/kg/day for next four days, 28 days after ischemia, fluorogold labeled cells) was “noticeable protection of a large proportion of the vulnerable ganglion cell population”. Also, the “protection of optic nerve axons after retinal ischemia” value in series [3] (same cases, toluidine blue staining, 28 days after 1 hour ischemia) is “protected the majority of optic nerve exons from degeneration”. Besides, the “RT97 +RGC axon density 14 days after ON transection (% ON axons rescued)” value in series [1] is 60.5%±3.9 SEM. Besides, the “preservation of axons in the proximal stump” value in series [4] is on record as “preserved the axons of virtually all protected neurons”. The “neovascularization in PR, ONL, OPL and INL” value in series [5] is “reduced neovascularization”.
Regarding `CCC(C)(C)C(=O)C(=O)N1CCCC[C@H]1C(=O)O` [G], the “RT97 +RGC axon density 14 days after ON transection (% ON axons rescued)” value in series [1] was 34.0%±4.8% SEM.
For the compound `CCC(C)(C)C(=O)C(=O)N1CCCC[C@H]1C(N)=O` [H], in series [1], the “RT97 +RGC axon density 14 days after ON transection (% ON axons rescued)” value was 30.3%±8.0% SEM.
The same measure, in the same setting: in the case of `O=C(OCCCc1cccnc1)[C@@H]1CCCN1C(=S)NC1CCCCC1` [I] it was 23.8%±5.3 SEM; in that of `CCC(C)(C)C(=O)C(=O)N1CCC[C@H]1C(=O)CCCCc1cccnc1` [J], 15.8%±4.8% SEM.
For `CCC(C)(C)C(=O)C(=O)N1CCC[C@H]1C(=O)O` [L], in series [1], the “RT97 +RGC axon density 14 days after ON transection (% ON axons rescued)” value is listed as 7.8%±3.0% SEM. The compound also yielded a Clearance in series [6] of 12.5 µL/min.
Consider `CCC(C)(C)C(=O)C(=O)N1CCC[C@H]1C(=O)SCCC(c1ccccc1)c1ccccc1` [M], for which, in series [1], the “RT97 +RGC axon density 14 days after ON transection (% ON axons rescued)” value was −6.3%+3.9% SEM.

Source of the values: US7338976B1, “Heterocyclic esters or amides for vision and memory disorders” (GPI NIL Holdings, Inc., priority 1998, dated 2008).
